Molecular target: SOS1 binding to KRAS-WT (Homo sapiens (Human), UniProt Q07889)
Experiment: SOS1/KRAS WT HTRF binding assay (FRET-based protein-protein interaction assay)
Details: 40 nM GST-KRAS-WT, 40 nM His6-SOS1 exchange domain, at least two independent replicates; for IC50: read-out: SOS1/KRAS WT HTRF Binding assay pIC50 (converted)
Text: The capacity of compounds to inhibit SOS1 binding to KRAS-WT (wild-type) was quantified using a FRET-based protein-protein interaction assay. The assay is based on the transfer of energy between two fluorophores, a donor and an acceptor, when in close proximity. In this instance, the donor is a Europium-conjugated α-GST antibody that binds to GST-tagged KRAS-WT, and the acceptor is an XL665-conJugated α-His6 antibody that binds to His6-tagged SOS1. Binding of SOS1 to KRAS-WT results in an increased fluorescent signal at emission wavelength of 665 nm which can be detected on the EnVision plate reader. Compounds that inhibit binding will reduce the 665 nm signal emitted. Recombinant KRAS-WT protein (40 nM; Human KRAS, aal-188 recombinant protein with N-terminal GST-tag) and SOS1 protein (40 nM; Human SOS1 exchange domain, aa564-1049 with N-terminal 6His-tag) were mixed together in assay buffer (5 mM HEPES pH7.3, 150 mM NaCl, 10 mM EDTA, 5 mM MgCl2, 0.05% BSA, 0.0025% NP-40, 1 mM DTT and 100 mM KF) and incubated at room temperature with a dose response of compound in a 384-well low volume white plate and a final volume of 5 ul. After a 60 minute incubation, 5 ul of 4 nM anti-GST-Eu(K) (Cisbio, France) combined with 20 nM anti-6His-XL665 (Cisbio, France), diluted in assay buffer, was added to the plate. Following a further 4 h incubation at room temperature, time-resolved fluorescence was measured on the EnVision plate reader. DMSO (0.05%) and 10 μM reference compound were used to generate the Max and Min assay signals, respectively. Data was analyzed using a four-parameter logistic model to calculate IC50 values, with at least two independent replicates performed for each compound.

Chain of SOS1 binding to KRAS-WT (Q07889 564-1049): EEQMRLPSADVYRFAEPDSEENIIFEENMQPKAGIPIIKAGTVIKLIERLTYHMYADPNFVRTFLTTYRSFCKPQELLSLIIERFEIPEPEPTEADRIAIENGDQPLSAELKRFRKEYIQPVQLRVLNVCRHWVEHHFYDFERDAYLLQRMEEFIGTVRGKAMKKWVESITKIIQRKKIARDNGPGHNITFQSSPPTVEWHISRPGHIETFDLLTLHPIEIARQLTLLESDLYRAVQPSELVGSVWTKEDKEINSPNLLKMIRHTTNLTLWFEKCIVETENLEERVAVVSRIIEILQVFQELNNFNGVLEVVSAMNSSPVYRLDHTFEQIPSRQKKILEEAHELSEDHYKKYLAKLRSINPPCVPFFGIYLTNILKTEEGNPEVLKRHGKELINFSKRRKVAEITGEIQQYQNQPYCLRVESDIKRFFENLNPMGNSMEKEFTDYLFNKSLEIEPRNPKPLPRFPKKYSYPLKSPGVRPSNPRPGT

Compound	IC50 [nM]	SOS1/KRAS WT HTRF Binding assay pIC50
Cc1nnc(N[C@H](C)c2cccc(C(F)(F)F)c2)c2cn(C3CCOC3)c(=O)cc12 (mixture of isomers) [Compound 8, 1-methyl-4-[[rac-(1R)-1-[3-(trifluoromethyl)phenyl]ethyl]amino]-6-tetrahydrofuran-3-yl-pyrido[3,4-d]pyridazin-7-one]	234	–
Cc1nnc(NC(C)c2cccc(C(F)(F)F)c2)c2cn(C3CCCC3)c(=O)cc12 (stereo not shown) [Compound 1, 6-cyclopentyl-1-methyl-4-[1-[3-(trifluoromethyl)phenyl]ethylamino] pyrido[3,4-d]pyridazin-7-one]	–	6.72
Cc1nnc(N[C@H](C)c2cccc(C(F)(F)F)c2)c2cn(C3CCCC3)c(=O)cc12 [Compound 2, 6-cyclopentyl-1-methyl-4-[[(1R)-1-[3-(trifluoromethyl)phenyl]ethyl]amino] pyrido[3,4-d]pyridazin-7-one]	–	7.11
CCn1cc2c(N[C@H](C)c3cccc(C(F)(F)F)c3)nnc(C)c2cc1=O [Compound 3, 6-ethyl-1-methyl-4-[[(1R)-1-[3-(trifluoromethyl)phenyl]ethyl]amino] pyrido[3,4-d]pyridazin-7-one]	–	6.46
Cc1nnc(N[C@H](C)c2cccc(C(F)(F)F)c2)c2cn(CC3CC3)c(=O)cc12 [Compound 4, 6-(cyclopropylmethyl)-1-methyl-4-[[(1R)-1-[3-(trifluoromethyl)phenyl]ethyl]amino] pyrido[3,4-d]pyridazin-7-one]	–	6.52
Cc1nnc(N[C@H](C)c2cccc(C(F)(F)F)c2)c2cn(CC3COC3)c(=O)cc12 [Compound 5, 1-methyl-6-(oxetan-3-ylmethyl)-4-[[(1R)-1-[3-(trifluoromethyl)phenyl]ethyl]amino] pyrido[3,4-d]pyridazin-7-one]	–	6.52
Cc1nnc(N[C@H](C)c2cccc(C(F)(F)F)c2)c2cn(CC3(C)COC3)c(=O)cc12 [Compound 6, 1-methyl-6-[(3-methyloxetan-3-yl)methyl]-4-[[(1R)-1-[3-(trifluoromethyl)phenyl]ethyl]amino] pyrido[3,4-d]pyridazin-7-one]	–	6.34
Cc1nnc(N[C@H](C)c2cccc(C(F)(F)F)c2)c2cn(C(C)C)c(=O)cc12 [Compound 7, 6-isopropyl-1-methyl-4-[[(1R)-1-[3-(trifluoromethyl)phenyl]ethyl]amino] pyrido[3,4-d]pyridazin-7-one]	–	7.02
Cc1nnc(NC(C)c2cccc(C(F)(F)F)c2)c2cc(O[C@H]3CCOC3)cnc12 (stereo partly drawn) [Compound 9, 8-methyl-3-[(3S)-tetrahydrofuran-3-yl]oxy-N-[1-[3-(trifluoromethyl)phenyl]ethyl]pyrido[2,3-d]pyridazin-5-amine]	–	6.60
Cc1nnc(N[C@H](C)c2cccc(C(F)(F)F)c2)c2cc(O[C@H]3CCOC3)cnc12 [Compound 10, 8-methyl-3-[(3S)-tetrahydrofuran-3-yl]oxy-N-[(1R)-1-[3-(trifluoromethyl)phenyl]ethyl]pyrido[2,3-d]pyridazin-5-amine]	–	6.76

Results, then the molecule that gave them:

IC50 [nM]	SOS1/KRAS WT HTRF Binding assay pIC50	Compound
58.9	–	Cc1nnc(N[C@H](C)c2cccc(C(F)(F)F)c2)c2cn(C3(C)CC3)c(=O)cc12 (racemic) [Compound 14, 1-methyl-6-(1-methylcyclopropyl)-4-[[rac-(1R)-1-[3-(trifluoromethyl)phenyl]ethyl]amino] pyrido[3,4-d]pyridazin-7-one]
36.3	–	CC(=O)N1CC=C(c2cc3c(N[C@H](C)c4cccc(C(F)(F)F)c4)nnc(C)c3n(C)c2=O)CC1 (racemic) [Compound 19, 3-(1-acetyl-3,6-dihydro-2H-pyridin-4-yl)-1,8-dimethyl-5-[[rac-(1R)-1-[3-(trifluoromethyl)phenyl]ethyl]amino] pyrido[2,3-d]pyridazin-2-one]
93.3	–	Cc1nnc(N[C@H](C)c2cccc(C(F)F)c2)c2cc(C3CCOCC3)c(=O)n(C)c12 (racemic) [Compound 20, 1,8-dimethyl-5-[[rac-(1R)-1-[3-(difluoromethyl)phenyl]ethyl]amino]-3-tetrahydropyran-4-yl-pyrido[2,3-d]pyridazin-2-one]
53.7	–	Cc1nnc(N[C@H](C)c2cccc(C(F)F)c2)c2cc(C3CCN(C)CC3)c(=O)n(C)c12 (racemic) [Compound 21, 1,8-dimethyl-3-(1-methyl-4-piperidyl)-5-[[rac-(1R)-1-[3-(difluoromethyl)phenyl]ethyl]amino] pyrido[2,3-d]pyridazin-2-one]
178	–	Cc1nnc(N[C@H](C)c2cccc(C(F)F)c2)c2cc(C3=CCCC3)c(=O)n(C)c12 [Compound 11, 3-(cyclopenten-1-yl)-5-[[(1R)-1-[3-(difluoromethyl)phenyl]ethyl]amino]-1,8-dimethyl-pyrido[2,3-d]pyridazin-2-one]
–	6.96	Cc1nnc(N[C@H](C)c2cccc(C(F)(F)F)c2)c2cc(C3=CCCC3)c(=O)n(C)c12 [Compound 12, 3-(cyclopenten-1-yl)-1,8-dimethyl-5-[[(1R)-1-[3-(trifluoromethyl)phenyl]ethyl]amino] pyrido[2,3-d]pyridazin-2-one]
–	7.20	Cc1nnc(N[C@H](C)c2cccc(C(F)(F)F)c2)c2cn(C3CC3)c(=O)cc12 [Compound 13, 6-cyclopropyl-1-methyl-4-[[(1R)-1-[3-(trifluoromethyl)phenyl]ethyl]amino] pyrido[3,4-d]pyridazin-7-one]
–	6.17	Cc1nnc(NC(C)c2cccc(C(F)(F)F)c2)c2nc(O[C@H]3CCOC3)ccc12 (stereo partly drawn) [Compound 15, 5-methyl-2-[(3S)-tetrahydrofuran-3-yl]oxy-N-[1-[3-(trifluoromethyl)phenyl]ethyl]pyrido[2,3-d]pyridazin-8-amine]
–	7.30	Cc1nnc(N[C@H](C)c2cccc(C(F)(F)F)c2)c2cc(C3=CCCNC3)c(=O)n(C)c12 [Compound 16, 1,8-dimethyl-3-(1,2,3,6-tetrahydropyridin-5-yl)-5-[[(1R)-1-[3-(trifluoromethyl)phenyl]ethyl]amino] pyrido[2,3-d]pyridazin-2-one]
–	7.36	CC(=O)N1CCCC(c2cc3c(N[C@H](C)c4cccc(C(F)(F)F)c4)nnc(C)c3n(C)c2=O)C1 (stereo partly drawn) [Compound 18, 3-(1-acetyl-3-piperidyl)-1,8-dimethyl-5-[[(1R)-1-[3-(trifluoromethyl)phenyl]ethyl]amino] pyrido[2,3-d]pyridazin-2-one]
35.5	–	CC(=O)N1CCC(c2cc3c(N[C@H](C)c4cccc(C(F)F)c4)nnc(C)c3n(C)c2=O)CC1 [Compound 22, 3-(1-acetyl-4-piperidyl)-5-[[(1R)-1-[3-(difluoromethyl)phenyl]ethyl]amino]-1,8-dimethyl-pyrido[2,3-d]pyridazin-2-one]
–	7.24	Cc1nnc(N[C@H](C)c2cccc(C(F)(F)F)c2F)c2cc(C3CCNCC3)c(=O)n(C)c12 [Compound 23, 5-[[(1R)-1-[2-fluoro-3-(trifluoromethyl)phenyl]ethyl]amino]-1,8-dimethyl-3-(4-piperidyl)pyrido[2,3-d]pyridazin-2-one]

Source: patent US20250154147A1, “NOVEL AMINE-SUBSTITUTED PHTHALAZINES AND DERIVATIVES AS SOS1 INHIBITORS” (Jazz Pharmaceuticals Ireland Limited, priority 2022, published 2025)
